The record followed here is ChEMBL document CHEMBL1135008, “17S,20S-Methanofusidic acid, a new potent semi-synthetic fusidane antibiotic” (2002).

The structures appear in SMILES notation. In brackets after ≈: the same amount, converted by molar mass.

What all share (format): functional
Test [1] relates to Staphylococcus aureus. In words: Compound was tested for its antibacterial activity against Staphylococcus aureus ATCC 2977.
In test [2] the test system is Lactiplantibacillus plantarum. As to the kind of experiment: Compound was tested for its antibacterial activity against Lactobacillus plantarum ATCC 8014.
For another test, the system named is Escherichia coli. In words: Compound was tested for its antibacterial activity against Escherichia coli HA 44.
Another test deals with Streptococcus pyogenes. In words: Compound was tested for its antibacterial activity against Streptococcus pyogenes EC.
The subject of the next test is Pseudomonas aeruginosa. In words: Compound was tested for its antibacterial activity against Pseudomonas aeruginosa ATCC 10145.
The test system of test [3] is Streptococcus sp. In words: Compound was tested for its antibacterial activity against Streptococcus sp. EG 14.
A further test relates to Bacillus cereus. As to the kind of experiment: Compound was tested for its antibacterial activity against Bacillus cereus ATCC 10876.
For test [4], the system named is Staphylococcus epidermidis. As to the kind of experiment: Compound was tested for its antibacterial activity against Staphylococcus epidermidis ATCC 12228.
The test system of test [5] is Streptococcus sp. In words: Compound was tested for its antibacterial activity against Streptococcus sp. EF 6.
Test [6] concerns Staphylococcus aureus. As to the kind of experiment: Compound was tested for its antibacterial activity against Staphylococcus aureus CJ 232 (MRSA).
For the next test, the system named is Clostridium perfringens. As to the kind of experiment: Compound was tested for its antibacterial activity against Clostridium perfringens KT 13.
The next test relates to Cutibacterium acnes. In words: Compound was tested for its antibacterial activity against Propionibacterium acnes NCTC 737.
Test [7] has as its system Geobacillus stearothermophilus. As to the kind of experiment: Compound was tested for its antibacterial activity against Bacillus stearothermophilus KG 5.
For a further test, the system named is Enterococcus faecalis. As to the kind of experiment: Compound was tested for its antibacterial activity against Enterococcus faecalis ATCC 10541.
The test system of a further test is Enterococcus faecium. As to the kind of experiment: Compound was tested for its antibacterial activity against Enterococcus faecium EI 119, penicillin resistant.
For a further test, the system named is Micrococcus luteus. In words: Compound was tested for its antibacterial activity against Micrococcus luteus ATCC 9341.
A further test has as its system Corynebacterium xerosis. In words: Compound was tested for its antibacterial activity against Corynebacterium xerosis NCTC 9755.
In test [8] the test system is Staphylococcus epidermidis. In words: Antimicrobial evaluation revealed potent activity against several Gram positive bacteria (Staphylococcus epidermidis ATCC 12228).

`CC(=O)O[C@H]1C[C@@]2(C)C(C[C@@H](O)[C@H]3[C@@]4(C)CC[C@@H](O)[C@@H](C)[C@@H]4CC[C@@]32C)/C1=C(\CCC=C(C)C)C(=O)O` (some centres undefined): the MIC is 0.006 µg/mL (≈ 0.0116 µM) against Staphylococcus aureus [1]; 4 µg/mL (≈ 7.74 µM) in [2]; greater than 125 µg/mL in the test with Escherichia coli; 4 µg/mL (≈ 7.74 µM) against Streptococcus pyogenes; 1 µg/mL (≈ 1.94 µM) with Pseudomonas aeruginosa; 16 µg/mL (≈ 31 µM) in the test with Streptococcus sp. [3]. The MIC was 4 µg/mL (≈ 7.74 µM) with Bacillus cereus; 0.001 µg/mL (≈ 0.00194 µM) in test [4]; 4 µg/mL (≈ 7.74 µM) against Streptococcus sp. [5]; 0.015 µg/mL (≈ 0.029 µM) in the test on Staphylococcus aureus [6]; 16 µg/mL (≈ 31 µM) with Clostridium perfringens; 0.02 µg/mL (≈ 0.0387 µM) in the test on Cutibacterium acnes. Besides, the minimum inhibitory concentration (MIC) came to 0.03 µg/mL (≈ 0.0581 µM) in [7]; 4 µg/mL (≈ 7.74 µM) in the test on Enterococcus faecalis; 0.02 µg/mL (≈ 0.0387 µM) in the test on Enterococcus faecium; 1 µg/mL (≈ 1.94 µM) with Micrococcus luteus; 0.04 µg/mL (≈ 0.0774 µM) in the test with Corynebacterium xerosis.
As to `CC(=O)O[C@H]1C[C@@]2(C)C(C[C@@H](O)[C@H]3[C@@]4(C)CC[C@@H](O)[C@@H](C)C4CC[C@@]32C)[C@]12C[C@]2(CCC=C(C)C)C(=O)O` (some centres undefined), the minimal inhibitory concentration (MIC) against Staphylococcus aureus [1] is 0.003 µg/mL (≈ 0.00565 µM); in test [2] it was 63 µg/mL (≈ 119 µM); with Escherichia coli, greater than 125 µg/mL; against Streptococcus pyogenes it was 16 µg/mL (≈ 30.1 µM); in the test on Pseudomonas aeruginosa, 1 µg/mL (≈ 1.88 µM); with Streptococcus sp. [3], 63 µg/mL (≈ 119 µM). The MIC in the test with Bacillus cereus was 1 µg/mL (≈ 1.88 µM); in the test on Streptococcus sp. [5] it was 16 µg/mL (≈ 30.1 µM); in the test with Staphylococcus aureus [6] it was 0.014 µg/mL (≈ 0.0264 µM); in [8], 0.001 µg/mL (≈ 0.00188 µM); in the test on Clostridium perfringens, 16 µg/mL (≈ 30.1 µM); against Cutibacterium acnes it was 0.02 µg/mL (≈ 0.0377 µM). The minimum inhibitory concentration (MIC) in [7] was found to be 0.03 µg/mL (≈ 0.0565 µM); with Enterococcus faecalis it was 16 µg/mL (≈ 30.1 µM); against Enterococcus faecium, 0.02 µg/mL (≈ 0.0377 µM); with Micrococcus luteus it was 0.25 µg/mL (≈ 0.471 µM); in the test with Corynebacterium xerosis, 0.04 µg/mL (≈ 0.0754 µM).
